Measurements reported in the supplement of paper PMC10307832.

Assays:
Assay in all cases: relative viability (nuclei count vs DMSO), 5 days (fraction); higher = more cells survive
[1] = compound: C1CNCCC1C2=CC(=NN2)C3=CC=NC=C3 + CC(=O)Nc1cccc(-n2c(=O)n(C3CC3)c(=O)c3c(Nc4ccc(I)cc4F)n(C)c(=O)c(C)c32)c1 [Trametinib] (partner 0.02 µM)
Method in brief: (§1)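 Each reported value is a median over duplicate plates. It expresses relative viability: treated-well nuclei count divided by vehicle-well nuclei count. Lung cancer cell lines in 1536-well plates were dosed by pin tool a day after seeding, alone with one drug or with a fixed anchor-drug dose plus five library-drug doses (not always all listed) in √10 steps, and nuclei were counted after 5 days.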

[2] = compound: C1CNCCC1C2=CC(=NN2)C3=CC=NC=C3 + Nc1nc2[nH]cc(CCc3ccc(C(=O)N[C@@H](CCC(=O)O)C(=O)O)cc3)c2c(=O)[nH]1 [Pemetrexed] (partner 0.2 µM)
Method in brief: as §1

Tanzisertib + Alpelisib = compound: O[C@H]1CC[C@H](Nc2ncc3nc(Nc4c(F)cc(F)cc4F)n([C@H]4CCOC4)c3n2)CC1 [Tanzisertib] + Cc1nc(NC(=O)N2CCC[C@H]2C(N)=O)sc1-c1ccnc(C(C)(C)C(F)(F)F)c1 [Alpelisib] (partner 2 µM)
Method in brief: as §1

Tanzisertib + Decitabine = compound: O[C@H]1CC[C@H](Nc2ncc3nc(Nc4c(F)cc(F)cc4F)n([C@H]4CCOC4)c3n2)CC1 [Tanzisertib] + Nc1ncn([C@H]2C[C@H](O)[C@@H](CO)O2)c(=O)n1 [Decitabine] (partner 2 µM)
Method in brief: as §1

SK-LU-1 was tested, and the relative viability ([1]; first compound 0.08 µM) was 0.449, the relative viability ([1]; first compound 0.8 µM) was 0.445 and the relative viability ([1]; first compound 2.53 µM) was 0.541. The relative viability ([1]; first compound 8 µM) was 0.528, the relative viability ([2]; first compound 0.08 µM) was 0.955 and the relative viability ([2]; first compound 0.8 µM) was 1.04. The relative viability ([2]; first compound 2.53 µM) was 1.04, the relative viability ([2]; first compound 8 µM) was 0.976 and the relative viability (Tanzisertib + Alpelisib; first compound 0.08 µM) was 1.15. The relative viability (Tanzisertib + Alpelisib; first compound 0.253 µM) was 0.976, the relative viability (Tanzisertib + Alpelisib; first compound 0.8 µM) was 1.12 and the relative viability (Tanzisertib + Alpelisib; first compound 2.53 µM) was 1.23. The relative viability (Tanzisertib + Alpelisib; first compound 8 µM) was 0.912, the relative viability (Tanzisertib + Decitabine; first compound 0.08 µM) was 0.707 and the relative viability (Tanzisertib + Decitabine; first compound 0.253 µM) was 0.796. It also gave a relative viability (Tanzisertib + Decitabine; first compound 0.8 µM) of 0.623, a relative viability (Tanzisertib + Decitabine; first compound 2.53 µM) of 0.616 and a relative viability (Tanzisertib + Decitabine; first compound 8 µM) of 0.647.
HCC-44 was tested, and the relative viability ([1]; first compound 0.08 µM) was 1.09, the relative viability ([1]; first compound 0.8 µM) was 1.06 and the relative viability ([1]; first compound 2.53 µM) was 1.04. The relative viability ([1]; first compound 8 µM) was 1.05, the relative viability ([2]; first compound 0.08 µM) was 0.678 and the relative viability ([2]; first compound 0.8 µM) was 0.659. It also gave a relative viability ([2]; first compound 2.53 µM) of 0.64, a relative viability ([2]; first compound 8 µM) of 0.613 and a relative viability (Tanzisertib + Alpelisib; first compound 0.08 µM) of 0.839. It also gave a relative viability (Tanzisertib + Alpelisib; first compound 0.253 µM) of 0.834, a relative viability (Tanzisertib + Alpelisib; first compound 0.8 µM) of 0.852 and a relative viability (Tanzisertib + Alpelisib; first compound 2.53 µM) of 0.768. For the same cell line, the relative viability (Tanzisertib + Alpelisib; first compound 8 µM) was 0.75, the relative viability (Tanzisertib + Decitabine; first compound 0.08 µM) was 0.94 and the relative viability (Tanzisertib + Decitabine; first compound 0.253 µM) was 0.978. For the same cell line, the relative viability (Tanzisertib + Decitabine; first compound 0.8 µM) was 0.998, the relative viability (Tanzisertib + Decitabine; first compound 2.53 µM) was 0.975 and the relative viability (Tanzisertib + Decitabine; first compound 8 µM) was 0.955.
A-427 showed a relative viability ([1]; first compound 0.08 µM) of 0.748, a relative viability ([1]; first compound 0.8 µM) of 0.857 and a relative viability ([1]; first compound 2.53 µM) of 0.779. It also gave a relative viability ([1]; first compound 8 µM) of 0.874, a relative viability ([2]; first compound 0.08 µM) of 0.967 and a relative viability ([2]; first compound 0.8 µM) of 0.996. For the same cell line, the relative viability ([2]; first compound 2.53 µM) was 0.982, the relative viability ([2]; first compound 8 µM) was 0.94 and the relative viability (Tanzisertib + Alpelisib; first compound 0.08 µM) was 1.11. For the same cell line, the relative viability (Tanzisertib + Alpelisib; first compound 0.253 µM) was 1.11, the relative viability (Tanzisertib + Alpelisib; first compound 0.8 µM) was 1.06 and the relative viability (Tanzisertib + Alpelisib; first compound 2.53 µM) was 1.06. The relative viability (Tanzisertib + Alpelisib; first compound 8 µM) was 0.96, the relative viability (Tanzisertib + Decitabine; first compound 0.08 µM) was 0.58 and the relative viability (Tanzisertib + Decitabine; first compound 0.253 µM) was 0.567. For the same cell line, the relative viability (Tanzisertib + Decitabine; first compound 0.8 µM) was 0.569, the relative viability (Tanzisertib + Decitabine; first compound 2.53 µM) was 0.537 and the relative viability (Tanzisertib + Decitabine; first compound 8 µM) was 0.631.
SW 1573 gave a relative viability ([1]; first compound 0.8 µM) of 0.6, a relative viability ([1]; first compound 2.53 µM) of 0.556 and a relative viability ([1]; first compound 8 µM) of 0.622. For the same cell line, the relative viability ([2]; first compound 0.8 µM) was 0.881, the relative viability ([2]; first compound 2.53 µM) was 0.912 and the relative viability ([2]; first compound 8 µM) was 0.992. The relative viability (Tanzisertib + Alpelisib; first compound 0.08 µM) was 0.823, the relative viability (Tanzisertib + Alpelisib; first compound 0.253 µM) was 0.656 and the relative viability (Tanzisertib + Alpelisib; first compound 0.8 µM) was 0.735. It also gave a relative viability (Tanzisertib + Alpelisib; first compound 2.53 µM) of 0.81, a relative viability (Tanzisertib + Alpelisib; first compound 8 µM) of 0.578 and a relative viability (Tanzisertib + Decitabine; first compound 0.08 µM) of 0.595. For the same cell line, the relative viability (Tanzisertib + Decitabine; first compound 0.253 µM) was 0.471, the relative viability (Tanzisertib + Decitabine; first compound 0.8 µM) was 0.535 and the relative viability (Tanzisertib + Decitabine; first compound 2.53 µM) was 0.516. The relative viability (Tanzisertib + Decitabine; first compound 8 µM) was 0.394.
For NCI-H322M, the relative viability ([1]; first compound 0.08 µM) was 0.511, the relative viability ([1]; first compound 0.8 µM) was 0.533 and the relative viability ([1]; first compound 2.53 µM) was 0.516. It also gave a relative viability ([1]; first compound 8 µM) of 0.575, a relative viability ([2]; first compound 0.08 µM) of 0.636 and a relative viability ([2]; first compound 0.8 µM) of 0.589. It also gave a relative viability ([2]; first compound 2.53 µM) of 0.641, a relative viability ([2]; first compound 8 µM) of 0.667 and a relative viability (Tanzisertib + Alpelisib; first compound 0.08 µM) of 0.935. For the same cell line, the relative viability (Tanzisertib + Alpelisib; first compound 0.253 µM) was 0.648, the relative viability (Tanzisertib + Alpelisib; first compound 0.8 µM) was 0.774 and the relative viability (Tanzisertib + Alpelisib; first compound 2.53 µM) was 0.669. The relative viability (Tanzisertib + Alpelisib; first compound 8 µM) was 0.776, the relative viability (Tanzisertib + Decitabine; first compound 0.08 µM) was 0.724 and the relative viability (Tanzisertib + Decitabine; first compound 0.253 µM) was 0.743. It also gave a relative viability (Tanzisertib + Decitabine; first compound 0.8 µM) of 0.746, a relative viability (Tanzisertib + Decitabine; first compound 2.53 µM) of 0.705 and a relative viability (Tanzisertib + Decitabine; first compound 8 µM) of 0.695.
For LK-2, the relative viability ([1]; first compound 0.08 µM) was 0.605, the relative viability ([1]; first compound 0.8 µM) was 0.761 and the relative viability ([1]; first compound 2.53 µM) was 0.591. The relative viability ([1]; first compound 8 µM) was 0.88, the relative viability ([2]; first compound 0.8 µM) was 0.263 and the relative viability ([2]; first compound 2.53 µM) was 0.295. The relative viability ([2]; first compound 8 µM) was 0.267, the relative viability (Tanzisertib + Alpelisib; first compound 0.08 µM) was 1.12 and the relative viability (Tanzisertib + Alpelisib; first compound 0.253 µM) was 0.946. For the same cell line, the relative viability (Tanzisertib + Alpelisib; first compound 0.8 µM) was 1.16, the relative viability (Tanzisertib + Alpelisib; first compound 2.53 µM) was 1.07 and the relative viability (Tanzisertib + Alpelisib; first compound 8 µM) was 1.12. The relative viability (Tanzisertib + Decitabine; first compound 0.08 µM) was 0.325, the relative viability (Tanzisertib + Decitabine; first compound 0.253 µM) was 0.379 and the relative viability (Tanzisertib + Decitabine; first compound 0.8 µM) was 0.217. For the same cell line, the relative viability (Tanzisertib + Decitabine; first compound 2.53 µM) was 0.381 and the relative viability (Tanzisertib + Decitabine; first compound 8 µM) was 0.221.
Work on NCI-H2023 yielded a relative viability ([1]; first compound 0.08 µM) of 0.418, a relative viability ([1]; first compound 0.8 µM) of 0.627 and a relative viability ([1]; first compound 2.53 µM) of 0.645. The relative viability ([1]; first compound 8 µM) was 0.494, the relative viability ([2]; first compound 0.08 µM) was 0.206 and the relative viability ([2]; first compound 0.8 µM) was 0.222. The relative viability ([2]; first compound 2.53 µM) was 0.224, the relative viability ([2]; first compound 8 µM) was 0.241 and the relative viability (Tanzisertib + Alpelisib; first compound 0.08 µM) was 0.671. The relative viability (Tanzisertib + Alpelisib; first compound 0.253 µM) was 0.577, the relative viability (Tanzisertib + Alpelisib; first compound 0.8 µM) was 0.627 and the relative viability (Tanzisertib + Alpelisib; first compound 2.53 µM) was 0.584. The relative viability (Tanzisertib + Alpelisib; first compound 8 µM) was 0.545, the relative viability (Tanzisertib + Decitabine; first compound 0.08 µM) was 0.249 and the relative viability (Tanzisertib + Decitabine; first compound 0.253 µM) was 0.21. It also gave a relative viability (Tanzisertib + Decitabine; first compound 0.8 µM) of 0.217, a relative viability (Tanzisertib + Decitabine; first compound 2.53 µM) of 0.165 and a relative viability (Tanzisertib + Decitabine; first compound 8 µM) of 0.166.
With NCI-H596 the relative viability ([1]; first compound 0.08 µM) was 0.777, the relative viability ([1]; first compound 0.8 µM) was 0.808 and the relative viability ([1]; first compound 2.53 µM) was 0.819. It also gave a relative viability ([1]; first compound 8 µM) of 0.834, a relative viability ([2]; first compound 0.08 µM) of 0.483 and a relative viability ([2]; first compound 0.8 µM) of 0.476. It also gave a relative viability ([2]; first compound 2.53 µM) of 0.525, a relative viability ([2]; first compound 8 µM) of 0.478 and a relative viability (Tanzisertib + Alpelisib; first compound 0.08 µM) of 0.539. For the same cell line, the relative viability (Tanzisertib + Alpelisib; first compound 0.253 µM) was 0.448, the relative viability (Tanzisertib + Alpelisib; first compound 0.8 µM) was 0.421 and the relative viability (Tanzisertib + Alpelisib; first compound 2.53 µM) was 0.407. The relative viability (Tanzisertib + Alpelisib; first compound 8 µM) was 0.471, the relative viability (Tanzisertib + Decitabine; first compound 0.08 µM) was 0.986 and the relative viability (Tanzisertib + Decitabine; first compound 0.253 µM) was 1.08. It also gave a relative viability (Tanzisertib + Decitabine; first compound 0.8 µM) of 0.982, a relative viability (Tanzisertib + Decitabine; first compound 2.53 µM) of 1 and a relative viability (Tanzisertib + Decitabine; first compound 8 µM) of 0.863.
SK-MES-1 gave a relative viability ([1]; first compound 0.08 µM) of 0.553, a relative viability ([1]; first compound 0.8 µM) of 0.549 and a relative viability ([1]; first compound 2.53 µM) of 0.542. It also gave a relative viability ([1]; first compound 8 µM) of 0.578, a relative viability ([2]; first compound 0.08 µM) of 0.985 and a relative viability ([2]; first compound 0.8 µM) of 0.9. The relative viability ([2]; first compound 2.53 µM) was 0.989, the relative viability ([2]; first compound 8 µM) was 0.94 and the relative viability (Tanzisertib + Alpelisib; first compound 0.08 µM) was 0.922. It also gave a relative viability (Tanzisertib + Alpelisib; first compound 0.253 µM) of 0.904, a relative viability (Tanzisertib + Alpelisib; first compound 0.8 µM) of 0.951 and a relative viability (Tanzisertib + Alpelisib; first compound 2.53 µM) of 0.921. For the same cell line, the relative viability (Tanzisertib + Alpelisib; first compound 8 µM) was 0.856, the relative viability (Tanzisertib + Decitabine; first compound 0.08 µM) was 0.365 and the relative viability (Tanzisertib + Decitabine; first compound 0.253 µM) was 0.409. It also gave a relative viability (Tanzisertib + Decitabine; first compound 0.8 µM) of 0.364, a relative viability (Tanzisertib + Decitabine; first compound 2.53 µM) of 0.34 and a relative viability (Tanzisertib + Decitabine; first compound 8 µM) of 0.327.
